Literature values as cited in patent US20010009917A1, “Methods and compositions for treating asthma, atherosclerosis and inflammatory diseases using optically pure (-zileuton” (priority 1993, published 2001).
Values belong to the molecule of their own block, whether it stands above or below them.

Key:
LTB4 = conditions: human volunteers, 800 mg p.o. twice per day for four weeks
[1] = biological target: T1, human platelet 12-lipoxygenase (Homo sapiens, UniProt P18054)
T1 construct: the supernatant containing the 12-lipoxygenase activity stored frozen until used; from tissue; host or cells: human platelets, sonicated lysate supernatant
T1 sequence (P18054 1-663): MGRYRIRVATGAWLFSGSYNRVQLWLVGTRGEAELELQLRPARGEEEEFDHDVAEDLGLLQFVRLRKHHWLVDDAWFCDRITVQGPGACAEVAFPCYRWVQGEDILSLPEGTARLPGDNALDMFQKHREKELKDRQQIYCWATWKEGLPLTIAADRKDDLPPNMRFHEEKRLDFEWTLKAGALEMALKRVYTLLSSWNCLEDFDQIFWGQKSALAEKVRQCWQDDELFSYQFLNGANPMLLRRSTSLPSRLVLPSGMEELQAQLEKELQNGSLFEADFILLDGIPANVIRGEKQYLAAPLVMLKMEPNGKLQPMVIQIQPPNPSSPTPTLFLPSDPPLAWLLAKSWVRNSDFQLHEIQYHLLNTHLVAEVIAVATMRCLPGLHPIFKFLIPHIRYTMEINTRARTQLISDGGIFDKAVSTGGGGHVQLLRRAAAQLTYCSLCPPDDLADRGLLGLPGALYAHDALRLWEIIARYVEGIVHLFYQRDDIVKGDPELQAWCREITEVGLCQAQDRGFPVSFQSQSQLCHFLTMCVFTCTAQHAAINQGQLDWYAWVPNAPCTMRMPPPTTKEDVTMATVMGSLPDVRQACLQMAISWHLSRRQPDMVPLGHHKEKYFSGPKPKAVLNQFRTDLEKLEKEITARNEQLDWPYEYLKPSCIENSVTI

[2] = biological target: T2, sheep seminal vesicle cyclooxygenase (Ovis aries, UniProt P05979)
T2 construct: incubations with sheep seminal vesicle gland microsomes (2 mg/mL); from tissue; host or cells: sheep seminal vesicle gland microsomes
T2 sequence (P05979 25-600): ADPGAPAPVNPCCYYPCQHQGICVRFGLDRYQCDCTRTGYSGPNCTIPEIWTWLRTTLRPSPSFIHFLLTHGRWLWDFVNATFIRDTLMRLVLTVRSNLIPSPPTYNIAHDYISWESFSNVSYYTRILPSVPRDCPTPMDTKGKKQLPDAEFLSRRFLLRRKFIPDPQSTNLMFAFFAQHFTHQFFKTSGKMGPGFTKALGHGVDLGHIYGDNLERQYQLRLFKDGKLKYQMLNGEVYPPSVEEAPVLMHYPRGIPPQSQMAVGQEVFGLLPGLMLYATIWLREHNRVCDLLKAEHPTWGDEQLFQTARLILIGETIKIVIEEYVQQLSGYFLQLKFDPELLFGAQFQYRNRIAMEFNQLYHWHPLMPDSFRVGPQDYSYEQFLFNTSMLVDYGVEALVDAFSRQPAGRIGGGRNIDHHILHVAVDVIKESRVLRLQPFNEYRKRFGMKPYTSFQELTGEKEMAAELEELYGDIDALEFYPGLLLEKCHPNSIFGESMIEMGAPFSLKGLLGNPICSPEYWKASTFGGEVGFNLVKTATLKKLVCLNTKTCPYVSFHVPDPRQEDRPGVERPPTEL

[3] = dog liver microsomes

Structure (SMILES): CC(c1cc2ccccc2s1)N(O)C(N)=O (racemic) [racemic zileuton, N-(1-benzo[b]thien-2-ylethyl)-N-hydroxyurea]
- decreases in LTB4 (LTB4): 75 to 85%
- patients reporting an adverse event during the four week trial (four week trial): One hundred
- improvement in symptoms of rheumatoid arthritis (human volunteers, 800 mg p.o. twice per day for four weeks): statistically significant improvement
- inhibitory effect on human platelet 12-lipoxygenase [1]: little inhibitory effect
- inhibitory effect on sheep seminal vesicle cyclooxygenase [2]: little inhibitory effect

- effect on glucuronidation of S-(−)-zileuton [3]: enhancement of that reaction
Structure (SMILES): C[C@H](c1cc2ccccc2s1)N(O)C(N)=O [(+)-zileuton, (+) isomer of N-(1-benzo[b]thien-2-ylethyl)-N-hydroxyurea]

- glucuronidation [3]: selective glucuronidation
Structure (SMILES): C[C@@H](c1cc2ccccc2s1)N(O)C(N)=O [S-(−)-zileuton]

Structure (SMILES): CC(C)NC[C@H](O)COc1cccc2ccccc12 [propranolol]
- potency relative to the D-enantiomer (beta-adrenergic): 100 times
